“And” between values parts separate entries of the source, which are not always exact repeats. Identical values can stand only once. Like-named read-outs stand apart in the source and are kept apart here.
Columns and labels:
[1] = In vitro metabolic stability in rat liver microsomes; format: in vitro ADME; conditions: 1 µM, up to 60 min, NADPH or UDPGA
Procedure: (§1) In vitro incubation dependent on NADPH: SGC003F was added into rat and human liver microsomes diluted in PBS (100 mM, pH 7.3). NADPH was introduced into the system. The NADPH had been pre-equilibrated under the same conditions for 5 min to initiate the enzymatic reaction. The incubation mixture was meticulously prepared to achieve the following final concentrations: 1 µM for SGC003F, 0.5 mg/mL for the liver microsomal protein, and 1 mM for NADPH.
(§2) In vitro incubation dependent on UDPGA: rat and human liver microsomes diluted in PBS (100 mM, pH 7.3) were mixed with alamethicin and then placed on ice for 15 min before the addition of the working solution of SGC003F. After preincubation in a water bath at 37 °C for 5 min, UDPGA, which had been preincubated for 5 min was added to initiate the reaction. The final concentrations in the incubation system were as follows: 1 μM for SGC003F, 0.5 mg/mL for liver microsomal protein concentration, 5 mM for UDPGA, and 25 μg/mL for alamethicin.
(§3) Positive probe substrate assays were utilized to ensure normal activity of the incubation system. […] Finally, 60 μL supernatant was taken and diluted with 60 μL of 50% acetonitrile before being analyzed by LC-MS/MS.

[2] = In vitro metabolic stability in human liver microsomes; format: in vitro ADME; conditions: 1 µM, up to 60 min, NADPH or UDPGA
Procedure: as §1, §2, §3

[3] = Urinary and fecal cumulative excretion of SGC003F in rats with or without tariquidar; format: in vivo; conditions: rat, SGC003F p.o. 1 mg/kg; for dose excreted: male, SD, urine and faeces
Procedure: In total, 18 male SD rats were randomly divided into three groups, with 6 rats in each group. Group I: SGC003F (p.o., 1 mg/kg) + blank vehicle (control group); Group Ⅱ: SGC003F (p.o., 1 mg/kg) + tariquidar (i.v., 7.5 mg/kg); Group III: SGC003F (p.o., 1 mg/kg) + tariquidar (p.o., 15 mg/kg). The rats were fasted for 12 h before oral administration. After administration, the rats were placed immediately in a metabolic cage and resumed feeding for 2 h. Urine and fecal samples were collected at 0–4, 4–8, 8–12, 12–24, 24–36, 36–48, 48–72, 72–96, and 96–120 h after administration. Fecal samples were homogenized with acetonitrile at a ratio of 1:4 (w/v) and stored at −40 °C for analysis.

[4] = Tissue distribution of SGC003F in rats with or without tariquidar; format: in vivo; conditions: male, SD, rat, SGC003F p.o. 1 mg/kg
Procedure: A total of 45 male SD rats were randomly divided into 15 groups, with 3 rats in each group; each set of 5 groups constituted a larger group. The first large group served as the control group: SGC003F (p.o., 1 mg/kg) + blank solvent; the second large group was designated as experimental Group I: SGC003F (p.o., 1 mg/kg) + tariquidar (i.v., 7.5 mg/kg); the third group was labeled as Group II: SGC003F (p.o., 1 mg/kg) + tariquidar (p.o., 15 mg/kg). The rats in each group were euthanized at 0.5 h, 1 h, 2 h, 4 h, and 24 h after administration. Blood samples were collected by cardiac puncture and placed in heparin tubes. The plasma was harvested by centrifugation at 2500× g for 10 min at 4 °C. Major organs (brain, heart, liver, kidney, and small intestine) were collected and homogenized with saline at a ratio of 1:4 (w/v). All samples were stored at −40 °C for further analysis.
The tissue plasma partition coefficient at individual time point (KP1) was calculated by the ratio of the tissue concentration to the plasma concentration at each time point, as described in Equation (3) KP1 = Ctissue/Cplasma(3)
The overall tissue plasma partition coefficient (KP2) was calculated by the ratio of the area under the tissue drug-time curve to the area under the plasma drug–time curve, as described in Equation (4) KP2 = AUC(0-t, tissue)/AUC(0-t, plasma)(4)

[5] = single, within 120 h, parent drug
[6] = tariquidar i.v. 7.5 mg/kg, 120 h
[7] = tariquidar p.o. 15 mg/kg, 120 h
[8] = with tariquidar i.v. 7.5 mg/kg, 120 h
[9] = with tariquidar p.o. 15 mg/kg, 120 h

Metabolic stability (percentage of drug remaining over time) [1]: no significant metabolic elimination
Metabolic stability (percentage of drug remaining over time) [2]: no significant metabolic elimination
dose excreted ([3]; oral, with tariquidar i.v. 7.5 mg/kg, 120 h, read-out: U + F (total urinary and fecal recovery)): 37.9 ± 5.99%
dose excreted ([3]; oral, with tariquidar p.o. 15 mg/kg, 120 h, read-out: U + F (total urinary and fecal recovery)): 36.7 ± 3.36%
dose excreted ([3]; po, 1 mg/kg, single, within 120 h, read-out: U + F (total urinary and fecal recovery of parent drug)): 71.5 ± 15.1%
Total cumulative urinary and fecal excretion relative to control group ([3]; after co-administration of tariquidar): 50%
F (cumulative fecal excretion) [3, 5]: 59.5 ± 14.4%
U (cumulative urinary excretion) [3, 5]: 11.9 ± 1.36%
F (fecal), Ratio 1 (with Tar (i.v.)/single) [3, 6]: 0.32
U + F, Ratio 1 (with Tar (i.v.)/single) [3, 6]: 0.53
U, Ratio 1 (with Tar (i.v.)/single) [3, 6]: 1.56
F (fecal), Ratio 2 (with Tar (p.o.)/single) [3, 7]: 0.19
U + F, Ratio 2 (with Tar (p.o.)/single) [3, 7]: 0.51
U, Ratio 2 (with Tar (p.o.)/single) [3, 7]: 2.13
F (cumulative fecal excretion) [3, 8]: 19.3% and 19.3 ± 2.31 %
U (cumulative urinary excretion) [3, 8]: 18.6% and 18.6 ± 4.37%
F (cumulative fecal excretion) [3, 9]: 11.5% and 11.5 ± 2.61 %
U (cumulative urinary excretion) [3, 9]: 25.3% and 25.3 ± 1.62%
Kp ([4]; brain, oral, with tariquidar i.v. 7.5 mg/kg, read-out: KP2, Brain): 0.004
Kp ([4]; brain, oral, with tariquidar p.o. 15 mg/kg, read-out: KP2, Brain): 0.004
AUC(0-t) ([4]; brain, po, 1 mg/kg, single, read-out: AUC(0–24h), Brain): 13.1 ± 2.66 ng·h/mL
AUC(0-t) ([4]; brain, po, 1 mg/kg, with tariquidar i.v. 7.5 mg/kg, read-out: AUC(0–24h), Brain): 31.2 ± 10.9 ng·h/mL
AUC(0-t) ([4]; brain, po, 1 mg/kg, with tariquidar p.o. 15 mg/kg, read-out: AUC(0–24h), Brain): 41.5 ± 14.8 ng·h/mL
Kp ([4]; heart, oral, with tariquidar i.v. 7.5 mg/kg, read-out: KP2, Heart): 0.4 ± 0.02
Kp ([4]; heart, oral, with tariquidar p.o. 15 mg/kg, read-out: KP2, Heart): 0.45 ± 0.09
AUC(0-t) ([4]; heart, po, 1 mg/kg, single, read-out: AUC(0–24h), Heart): 2370 ± 346 ng·h/mL
Kp ([4]; heart, po, 1 mg/kg, single, read-out: KP2 (tissue/plasma AUC), Heart): 0.45 ± 0.04
AUC(0-t) ([4]; heart, po, 1 mg/kg, with tariquidar i.v. 7.5 mg/kg, read-out: AUC(0–24h), Heart): 3060 ± 619 ng·h/mL
AUC(0-t) ([4]; heart, po, 1 mg/kg, with tariquidar p.o. 15 mg/kg, read-out: AUC(0–24h), Heart): 4750 ± 1820 ng·h/mL
AUC(0-t) ([4]; kidney, po, 1 mg/kg, single, read-out: AUC(0–24h), Kidney): 5990 ± 2170 ng·h/mL
AUC(0-t) ([4]; kidney, po, 1 mg/kg, with tariquidar i.v. 7.5 mg/kg, read-out: AUC(0–24h), Kidney): 7870 ± 1570 ng·h/mL
AUC(0-t) ([4]; kidney, po, 1 mg/kg, with tariquidar p.o. 15 mg/kg, read-out: AUC(0–24h), Kidney): 11900 ng·h/mL
AUC(0-t) ([4]; liver, po, 1 mg/kg, single, read-out: AUC(0–24h), Liver): 4870 ± 1050 ng·h/mL
AUC(0-t) ([4]; liver, po, 1 mg/kg, with tariquidar i.v. 7.5 mg/kg, read-out: AUC(0–24h), Liver): 6360 ± 283 ng·h/mL
AUC(0-t) ([4]; liver, po, 1 mg/kg, with tariquidar p.o. 15 mg/kg, read-out: AUC(0–24h), Liver): 9600 ± 1820 ng·h/mL
AUC(0-t) ([4]; plasma, po, 1 mg/kg, single, read-out: AUC(0–24h), Plasma): 5310 ± 798 ng·h/mL
Compound: COC(=O)Nc1c(N)nc(-c2nn(Cc3sccc3F)c3ncc(F)cc23)nc1N [SGC003F]

Reference: PMC11435065, “Inhibition of P-Glycoprotein Asymmetrically Alters the In Vivo Exposure Profile of SGC003F: A Novel Guanylate Cyclase Stimulator” (Pharmaceuticals, 2024)
